Measured values taken from patent publication US20260232661A1, “Compositions and Uses Thereof” (Purposeful IKE, priority 2020, published 2026).
“And” between values parts separate entries of the source, which are not always exact repeats. Equal entries are not always repeated.

Experiments:
Assay type in all cases: in vivo
[1] = system: Fmr1 KO mice; test: Open field test (hyperactivity)
Method: (§1) Fmr1 KO mice backcrossed to the FVB strain and WT littermates were used during experiments. TransnetXY Automated Genotyping (www.transnetyx.com/). TRANSNETYX, INC., 8110 Cordova Rd. Suite 119, Cordova, TN 38016, USA was used for genotyping. The animals were pretreated for 14 days. The active ingredients of Sumatriptan and Ergoloid were in a water carrier, whereas oxitriptan was in a methanol carrier.
(§2) The mice were housed in plastic cages (35×30×12 cm), 5 in each. The room temperature (21±2° C.), relative humidity (55±5%), a 12-h light-dark cycle (lights on 7 a.m.-7 p.m.) and air exchange (16 times per h) were automatically controlled. The animals had free access to commercial food pellets and water. Testing was conducted during the light phase. Ten mice per treatment group were used for the AGS experiments. Experiments were conducted in line with the requirements of the UK Animals (Scientific Procedures) Act, 1986.
(§3) All experiments were conducted with the experimenter blind to genotype and drug treatment. Separate investigators prepared and coded dosing solutions, allocated the mice to the study treatment groups, dosed the animals, and collected the Audiogenic Seizure data.
(§4) Behavior testing was conducted at 2 weeks. The behavioral tests were as follows: 1. Hyperactivity: Open field; 2. Stereotypy: Self-grooming; 3. Sociability: Three chamber partition test; 4. Memory and Learning: Novel Object Recognition; 5. Anxiety: hyponeophagia; and 6. Test of daily living: marble burying
For hyperactivity, the open field test (OFT) is a common measure of exploratory behavior and general activity in both mice and rats, where both the quality and quantity of the activity can be measured. Principally, the open field (OF) is an enclosure, generally square, rectangular, or circular in shape with surrounding walls that prevent escape. The OFT is also commonly used as a mechanism to assess the sedative, toxic, or stimulant effects of compounds (Gould 2009).
(§5) The treatment of the mice with OX (Oxitriptan), SU (Sumatriptan), ER (Ergoloid mesylates, also referred to as ergoloid herein) were according to the matrix shown below in Table 1.
(§6) The experimental procedures described above for Example 1 were used in the following tests, as well as the addition of two further behaviour tests as described below. An SSRI (selective serotonin re-uptake inhibitor) was co-dosed with the ergoloid mesylates and oxitriptan to assess the effect of the ergoloid mesylates and oxitriptan treatment on a subject already receiving SSRI treatment.
(§7) The treatment of the mice with OX (Oxitriptan), ER (Ergoloid mesylates) and FL (fluvoxamine) were according to the matrix shown below in Table 21. The triple combination involved dosing of 2 mg/kg ergoloid mesylates, 40 mg/kg oxitriptan and 40 mg/kg of fluvoxamine (the SSRI).

[2] = system: Fmr1 KO mice; test: Self-grooming (stereotypy); details: Dunnett's test, alpha 0.05; doses as E31
Method: as §1, §2, §3
Behavior testing was conducted at 2 weeks. The behavioral tests were as follows: 1. Hyperactivity: Open field; 2. Stereotypy: Self-grooming; 3. […]
For stereotypy, self-grooming was assessed. […]

[3] = system: Fmr1 KO mice; test: Three chamber partition test (sociability); set-up: Mean Diff., N_WT-V vs. treated KO (Sociability) / Mean 2, treated KO group (Sociability) / Mean Diff., F_KO-V vs. F_KO treated (Sociability) / Mean Diff., F_KO-V vs. N_KO treated (Sociability) / Mean 2, F_KO treated group (Sociability) / Mean 2, N KO treated group (Sociability) / Mean 2, N_KO treated group (Sociability) / Data table Sociability, F_KO-Sumatriptan / Data table Sociability, N_KO-Sumatriptan / Data table Sociability, F_KO-Oxitriptan: unit not given here
Method: as §1, §2, §3, §4
For sociability a three chamber partition test was utilized. The three-chamber paradigm test known as Crawley's sociability and preference for social novelty protocol has previously been successfully employed to study social affiliation and social memory in several inbred and mutant mouse lines. The main principle of the test was based on the free choice by a subject mouse to spend time in any of three box's compartments during two experimental sessions, including indirect contact with one or two mice with which it was unfamiliar (Kaidanovich-Beilin 2011).
(§8) The treatment of the mice with OX (Oxitriptan), SU (Sumatriptan), ER (Ergoloid mesylates, also referred to as ergoloid herein) were according to the matrix shown below in Table 1. […]

[4] = system: Fmr1 KO mice; test: Novel Object Recognition (memory and learning); set-up: Mean Diff., N_WT-V vs. treated KO (NOR) / Mean 2, treated KO group (NOR) / Mean Diff., F_KO-V vs. F_KO treated (NOR) / Mean Diff., F_KO-V vs. N_KO treated (NOR) / Mean 2, F_KO treated group (NOR) / Mean 2, N_KO treated group (NOR): unit not given here
Method: as §1, §2, §3, §4
For memory and learning, a novel object recognition (NOR) task was used to evaluate the rodents' ability to recognize a novel object in the environment. […] The task procedure consists of three phases: habituation, familiarization, and test phase (Antunes 2012).
as §8

[5] = system: Fmr1 KO mice; test: Hyponeophagia test (anxiety)
Method: as §1, §2, §3, §4
For anxiety a hyponeophagia test was conducted. Mice and rats cannot vomit, due to the tightness of the cardiac sphincter of the stomach, so to overcome the problem of potential food toxicity they have evolved a strategy of first ingesting only very small amounts of novel substances. The amounts ingested then gradually increase until the animal has determined whether the substance is safe and nutritious. So the old rat-catchers would first put a palatable substance such as oatmeal, which was to be the vehicle for the toxin, in the infested area (Deacon 2011).
as §5, §6, §7

[6] = system: Fmr1 KO mice; test: Test of daily living (nesting; marble burying)
Method: as §1, §2, §3, §4
For test of daily living, nesting was assessed as nest building is an innate behavior in rodents, even when raised in laboratory settings. Synthetic and/or natural materials (such as twine, tissue, cotton, paper, and hay) are provided as a gauge of their overall well-being and as an ancillary assessment to predict the possible decline in cognition. Typically, changes in nesting behaviors, such as failure to create a nest, indicate a change in health or welfare. In addition, nesting behavior is sensitive to many environmental and physiological challenges, as well as many genetic mutations underlying pathological disease states (Gaskill 2013).
as §5, §6, §7

[7] = F_ groups, mg/kg: Sumatriptan 20, Oxitriptan 40, Ergoloid 4, Ergoloid 2+Oxitriptan 40 (Column M)
[8] = F_, KO mice, Sumatriptan 20 mg/kg, individual animals
[9] = N_ groups, mg/kg: Sumatriptan 20, Oxitriptan 40, Ergoloid 4, Ergoloid 2+Oxitriptan 40
[10] = N_ groups, mg/kg: Sumatriptan 20, Oxitriptan 40, Ergoloid 4, F_KO Ergoloid 2+Sumatriptan 10, N_KO Ergoloid 2+Oxitriptan 40
[11] = KO mice, mg/kg: Sumatriptan 20, Oxitriptan 40, Ergoloid 4, Ergoloid 2+Sumatriptan 10, Ergoloid 2+Oxitriptan 40

## CNS(=O)(=O)Cc1ccc2[nH]cc(CCN(C)C)c2c1 [Sumatriptan]
[1]; Dunnett's test, alpha 0.05, doses as E1
  Below threshold? WT-V vs. treated KO (Open Field): Yes
[1]; Dunnett's test, alpha 0.05, doses as E26
  Significant? KO-V vs. treated KO (Open Field): Yes
[1]; KO mice, mg/kg: Sumatriptan 20, Oxitriptan 80, Ergoloid 4, Ergoloid 2+Oxitriptan 40
  Mean Diff., KO-V vs. treated KO (Open Field): 846.8
[2]
  Significant? KO-V vs. treated KO (Stereotypy): Yes
[3]; Dunnett's test, alpha 0.05, F_ groups, doses as E56
  Significant? F_KO-V vs. F_KO treated (Sociability): Yes
[3]; Dunnett's test, alpha 0.05, N_ groups, doses as E61
  Significant? F_KO-V vs. N_KO treated (Sociability): Yes
[3]; Dunnett's test, alpha 0.05, groups and doses as E21
  Significant? N_WT-V vs. treated KO (Sociability): No
[3]; Dunnett's test, groups and doses as E21
  Summary, N_WT-V vs. treated KO (Sociability): ns
[3]; [7]
  Mean Diff., F_KO-V vs. F_KO treated (Sociability): 19.40
[3]; [8]
  Data table Sociability, F_KO-Sumatriptan: 61 (2×) and 64 and 65 (2×) and 60 (3×) and 63 (2×)
[3]; KO mice, Sumatriptan 20 mg/kg, individual animals
  Data table Sociability, N_KO-Sumatriptan: 99 and 97 (2×) and 103 and 98 and 90 and 102 and 100 and 95 and 101
[3]; [9]
  Mean Diff., F_KO-V vs. N_KO treated (Sociability): −16.80
[3]; [10]
  Mean Diff., N_WT-V vs. treated KO (Sociability): 0.9000
[3]; comparison against F_KO-V, doses as E56
  Mean 2, F_KO treated group (Sociability): 62.20
[3]; comparison against F_KO-V, doses as E61
  Mean 2, N KO treated group (Sociability): 98.2
[3]; comparison against N_WT-V, groups and doses as E21
  Mean 2, treated KO group (Sociability): 98.20
[4]; Dunnett's test, alpha 0.05, F_ groups, doses as E46
  Significant? F_KO-V vs. F_KO treated (NOR): No
[4]; Dunnett's test, alpha 0.05, N_ groups, doses as E51
  Significant? F_KO-V vs. N_KO treated (NOR): No
[4]; Dunnett's test, alpha 0.05, groups and doses as E16
  Significant? N_WT-V vs. treated KO (NOR): Yes
[4]; Dunnett's test, F_ groups, doses as E46
  Summary, F_KO-V vs. F_KO treated (NOR): ns
[4]; Dunnett's test, N_ groups, doses as E51
  Summary, F_KO-V vs. N_KO treated (NOR): ns
[4]; [7]
  Mean Diff., F_KO-V vs. F_KO treated (NOR): −0.2000
[4]; [8]
  Data table Novel Object Recognition, F_KO-Sumatriptan: 6
[4]; [9]
  Mean Diff., F_KO-V vs. N_KO treated (NOR): −0.7000
[4]; [10]
  Mean Diff., N_WT-V vs. treated KO (NOR): 6.600
[4]; comparison against F_KO-V, doses as E46
  Mean 2, F_KO treated group (NOR): 5.800
[4]; comparison against F_KO-V, doses as E51
  Mean 2, N_KO treated group (NOR): 7.300
[4]; comparison against N_WT-V, groups and doses as E16
  Mean 2, treated KO group (NOR): 7.300
[5]; Dunnett's test, alpha 0.05, doses as E6
  Significant? WT-V vs. treated KO (Hyponeophagia): Yes
[5]; Dunnett's test, alpha 0.05, doses as E36
  Significant? KO-V vs. treated KO (Hyponeophagia): Yes
[5]; [11]
  Mean Diff., WT-V vs. treated KO (Hyponeophagia): −9.200
[6]; Dunnett's test, alpha 0.05, doses as E11
  Significant? WT-V vs. treated KO (Test of daily living): No
[6]; Dunnett's test, alpha 0.05, doses as E41
  Significant? KO-V vs. treated KO (Test of daily living): Yes
[6]; Dunnett's test, doses as E11
  Summary, WT-V vs. treated KO (Test of daily living): ns
[6]; [11]
  Mean Diff., WT-V vs. treated KO (Test of daily living): 0.1000
[6]; comparison against KO-V, doses as E41
  Mean 2, treated KO group (Test of daily living): 4.700
[6]; comparison against WT-V, doses as E11
  Mean 2, treated KO group (Test of daily living): 4.700
